Measurements published in patent publication US20260077051A1, “COMPOUNDS FOR THE DEGRADATION OF EGFR KINASE” (BeOne Medicines I GmbH, priority 2023, published 2026).

Experiments:
[1] = target: T1, EGFR-L858R/C797S (H1975-clone #8 cells) (Homo sapiens, UniProt P00533, C797S/L858R); test: EGFR degradation in H1975-clone#8 (L858R/C797S) cells (HTRF assay); assay type: cell-based; settings: 16 h treatment; for DC50: IC50(DC50) of EGFR degradation; for Dmax: maximum percentage of inhibition (degradation)
T1 construct: expressed in transfected cells; host or cells: H1975 (lentiviral transduction, endogenous EGFR knocked out, single clone #8)
Description: H1975-clone #8 (L858R/C797S): EGFR-L858R/C797S were stably expressed in H1975 cell lines by lentivirus-mediated over-expression, respectively. The EGFR over-expressed cells then underwent knockout, in which the EGFR targeting sgRNA was designed to only target the endogenous EGFR copies and preserve the exogenous EGFR copies. Followed by the knockout, the edited H1975 cells were seeded in 96 well plates at the concentration of […], cultured for about 2 weeks to allow single clones formation. The formed clones were screened by DNA sequencing and whole exon sequencing analysis for the desired edition. H1975-clone #8 were finally confirmed as homozygous L858R/C797S EGFR clones.
(§1) H1975-#8 and BaF3-L858R cells are treated with compounds diluted in 0.1% DMSO cell culture medium on day 2, incubate for 16 h, 37° C., 5% CO2. the final concentration of compounds in all assay is start with 10 uM, 5-fold dilution, total 8 doses were included.
(§2) After 16 h treatment, for H1975-#8 cells, add 100 ul HTRF 1× lysis buffer to each well; for BaF3-L858R cells, add 20 μl 4× lysis buffer to each well; seal the plate and incubate 1 hour at room temperature on a plate shaker; Once the cells are lysed, 16 μL of cell lysate are transferred to a PE 384-well HTRF detection plate; 4 μL of pre-mixed HTRF antibodies are added to each well; Cover the plate with a plate sealer, spin 1000 rpm for 1 min, Incubate overnight at room temperature; Read on BMG PheraStar with HTRF protocol (337 nm-665 nm-620 nm).
(§3) The inhibition (degradation) percentage of the compound was calculated by the following equation:
(§4) High control=Cell group with added DMSO and without compound, indicating microplate readings without EGFR degradation;
(§5) Dmax is the maximum percentage of inhibition (degradation).
(§6) The IC50(DC50) value of a compound can be obtained by fitting the following equation
(§7) Wherein, X and Y are known values, and IC50, Hillslope, Top and Bottom are the parameters obtained by fitting with software. Y is the inhibition percentage (calculated from the equation), X is the concentration of the compound; IC50 is the concentration of the compound when the 50% inhibition is reached. The smaller the IC50 value is, the stronger the inhibitory ability of the compound is. Vice versa, the higher the IC50 value is, the weaker the ability the inhibitory ability of the compound is; Hillslope represents the slope of the fitted curve, generally around 1*; Bottom represents the minimum value of the curve obtained by data fitting, which is generally 0%±20%; Top represents the maximum value of the curve obtained by data fitting, which is generally 100%±20%. The experimental data were fitted by calculating and analyzing with Dotmatics data analysis software.

[2] = target: T2, EGFR L858R (BaF3-L858R cells) (Homo sapiens, UniProt P00533, L858R); test: EGFR degradation in BaF3-L858R cells (HTRF assay); assay type: cell-based; settings: 16 h treatment; for DC50: IC50(DC50) of EGFR degradation; for Dmax: maximum percentage of inhibition (degradation)
T2 construct: host or cells: BaF3
Description: BaF3-L858R (abbv. L858R) cell were purchased from Kangyuan Bochuang Biotechnology (Beijing) Co., Ltd.
as §1, §2, §3, §4, §5, §6, §7

T1 sequence (P00533 25-1210 C797S/L858R): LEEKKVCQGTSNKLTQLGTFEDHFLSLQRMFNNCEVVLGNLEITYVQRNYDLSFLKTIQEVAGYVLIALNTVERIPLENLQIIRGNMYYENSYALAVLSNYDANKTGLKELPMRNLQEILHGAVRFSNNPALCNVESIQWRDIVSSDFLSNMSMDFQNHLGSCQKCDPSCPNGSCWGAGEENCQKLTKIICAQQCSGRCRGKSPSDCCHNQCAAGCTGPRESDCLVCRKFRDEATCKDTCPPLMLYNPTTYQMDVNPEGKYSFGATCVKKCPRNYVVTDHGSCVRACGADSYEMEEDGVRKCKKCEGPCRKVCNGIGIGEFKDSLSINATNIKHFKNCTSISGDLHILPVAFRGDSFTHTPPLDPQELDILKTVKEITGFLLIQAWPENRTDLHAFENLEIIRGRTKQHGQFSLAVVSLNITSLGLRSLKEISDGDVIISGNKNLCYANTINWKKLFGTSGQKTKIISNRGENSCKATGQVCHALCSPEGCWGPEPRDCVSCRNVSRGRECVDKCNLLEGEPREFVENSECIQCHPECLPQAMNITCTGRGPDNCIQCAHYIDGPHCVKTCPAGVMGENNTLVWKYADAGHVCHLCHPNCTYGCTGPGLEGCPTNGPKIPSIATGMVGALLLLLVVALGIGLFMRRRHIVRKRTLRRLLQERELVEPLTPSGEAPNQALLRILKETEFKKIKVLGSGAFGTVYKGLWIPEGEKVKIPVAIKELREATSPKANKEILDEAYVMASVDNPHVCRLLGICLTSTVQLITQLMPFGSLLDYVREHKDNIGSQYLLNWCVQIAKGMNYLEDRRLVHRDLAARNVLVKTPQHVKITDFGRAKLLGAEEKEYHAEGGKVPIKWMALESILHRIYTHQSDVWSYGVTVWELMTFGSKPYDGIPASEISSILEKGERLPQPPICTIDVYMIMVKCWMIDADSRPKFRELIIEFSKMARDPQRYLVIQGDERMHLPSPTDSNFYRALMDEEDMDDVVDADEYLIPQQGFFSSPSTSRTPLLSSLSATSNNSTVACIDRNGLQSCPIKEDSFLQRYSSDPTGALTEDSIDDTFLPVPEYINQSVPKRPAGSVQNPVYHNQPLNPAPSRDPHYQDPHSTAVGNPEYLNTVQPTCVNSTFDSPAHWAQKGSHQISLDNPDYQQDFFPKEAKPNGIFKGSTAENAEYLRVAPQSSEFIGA
T2 sequence (P00533 25-1210 L858R): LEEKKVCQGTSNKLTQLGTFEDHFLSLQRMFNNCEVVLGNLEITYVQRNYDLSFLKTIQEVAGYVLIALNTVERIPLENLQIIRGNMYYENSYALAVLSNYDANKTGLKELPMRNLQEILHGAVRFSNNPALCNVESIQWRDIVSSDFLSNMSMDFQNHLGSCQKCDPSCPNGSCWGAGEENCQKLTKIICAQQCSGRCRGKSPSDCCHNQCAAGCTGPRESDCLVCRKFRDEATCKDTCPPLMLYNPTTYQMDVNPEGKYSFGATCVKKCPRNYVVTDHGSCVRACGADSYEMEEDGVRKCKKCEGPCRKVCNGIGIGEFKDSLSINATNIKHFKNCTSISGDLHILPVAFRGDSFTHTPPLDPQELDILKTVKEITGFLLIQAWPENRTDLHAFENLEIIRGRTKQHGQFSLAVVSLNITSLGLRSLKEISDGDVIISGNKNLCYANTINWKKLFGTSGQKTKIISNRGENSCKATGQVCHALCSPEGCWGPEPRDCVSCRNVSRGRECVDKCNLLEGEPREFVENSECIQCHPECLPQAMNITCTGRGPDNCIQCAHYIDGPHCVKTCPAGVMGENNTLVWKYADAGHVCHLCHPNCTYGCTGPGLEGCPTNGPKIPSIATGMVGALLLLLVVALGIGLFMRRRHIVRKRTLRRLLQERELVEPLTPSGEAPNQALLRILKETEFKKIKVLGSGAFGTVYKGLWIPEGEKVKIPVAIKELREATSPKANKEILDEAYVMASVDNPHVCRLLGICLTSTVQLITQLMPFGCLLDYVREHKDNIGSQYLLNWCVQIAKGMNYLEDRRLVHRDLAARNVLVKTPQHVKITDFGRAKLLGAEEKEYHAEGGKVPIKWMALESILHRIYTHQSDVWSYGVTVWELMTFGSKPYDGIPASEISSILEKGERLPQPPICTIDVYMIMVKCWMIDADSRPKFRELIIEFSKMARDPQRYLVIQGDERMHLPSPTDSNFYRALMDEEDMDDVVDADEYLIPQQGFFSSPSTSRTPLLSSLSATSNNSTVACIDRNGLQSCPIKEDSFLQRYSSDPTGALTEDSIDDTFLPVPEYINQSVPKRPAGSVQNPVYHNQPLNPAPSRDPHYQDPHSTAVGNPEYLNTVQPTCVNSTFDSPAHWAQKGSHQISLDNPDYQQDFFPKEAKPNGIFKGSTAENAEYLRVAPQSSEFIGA

Row | DC50 [1] [nM] | Dmax [1] [%] | DC50 [2] [nM] | Dmax [2] [%] | SMILES
1 | 3.41 | 58.9 | 4.02 | 85.7 | COC[C@@H]1CN(c2ccc3c(c2)N2C[C@@H]4C[C@@]4(C)CCOc4c(cnn4C)-c4cc(cc(C)n4)C(=O)/N=C/2N3)CCN1C1CCN(c2cc(F)c([C@H]3CCC(=O)NC3=O)c(F)c2)CC1 [Example 26, (R)-3-(2,6-difluoro-4-(4-((S)-2-(methoxymethyl)-4-((7^1R,7^2S,E)-1^1,2^6,7^2-trimethyl-3-oxo-5^2,5^3-dihydro-1^1H,5^1H-10-oxa-4-aza-5 (2,1)-benzo[d]imidazola-2 (2,4)-pyridina-1 (4,5)-pyrazola-7 (1,2)-cyclopropanacyclodecaphane-5^6-yl)piperazin-1-yl)piperidin-1-yl)phenyl)piperidine-2,6-dione]
2 | 1.31 | 63.6 | 1.25 | 79.1 | Cc1cc2cc(n1)-c1cnn(C)c1OCC[C@]1(C)C[C@H]1CN1/C(=N/C2=O)Nc2ccc(N3CCN(C4CN(C5CCN(c6cc(F)c([C@H]7CCC(=O)NC7=O)c(F)c6)CC5)C4)C[C@@H]3C)cc21 [Example 27, (R)-3-(2,6-difluoro-4-(4-(3-((S)-3-methyl-4-((7^1R,7^2S,E)-1^1,2^6,7^2-trimethyl-3-oxo-5^2,5^3-dihydro-1^1H,5^1H-10-oxa-4-aza-5 (2,1)-benzo[d]imidazola-2 (2,4)-pyridina-1 (4,5)-pyrazola-7 (1,2)-cyclopropanacyclodecaphane-5^6-yl)piperazin-1-yl)azetidin-1-yl)piperidin-1-yl)phenyl)piperidine-2,6-dione]
3 | 2.71 | 49 | 6.31 | 78.2 | Cc1cc2cc(n1)-c1cnn(C)c1OCC[C@H]1C[C@@H]1CN1/C(=N/C2=O)Nc2ccc(N3CC4CCC3CN4C3CN(C4CCN(c5c(C)cc(C6CCC(=O)NC6=O)nc5C)CC4)C3)cc21 (stereo partly shown) [Example 28, 3-(5-(4-(3-(5-((7^1S,7^2R,E)-1^1,2^6-dimethyl-3-oxo-5^2,5^3-dihydro-1^1H,5^1H-10-oxa-4-aza-5 (2,1)-benzo[d]imidazola-2 (2,4)-pyridina-1 (4,5)-pyrazola-7 (1,2)-cyclopropanacyclodecaphane-5^6-yl)-2,5-diazabicyclo[2.2.2]octan-2-yl)azetidin-1-yl)piperidin-1-yl)-4,6-dimethylpyridin-2-yl)piperidine-2,6-dione]
4 | 0.986 | 49.2 | 3.9 | 67.8 | Cc1cc2cc(n1)-c1cnn(C)c1OCC[C@]1(C)C[C@H]1CN1/C(=N/C2=O)Nc2ccc(N3CCC(C(=O)N4CCC(Oc5cc(F)c([C@H]6CCC(=O)NC6=O)c(F)c5)CC4)CC3)cc21 [Example 29, (R)-3-(2,6-difluoro-4-((1-(1-((7^1R,7^2S,E)-1^1,2^6,7^2-trimethyl-3-oxo-5^2,5^3-dihydro-1^1H,5^1H-10-oxa-4-aza-5 (2,1)-benzo[d]imidazola-2 (2,4)-pyridina-1 (4,5)-pyrazola-7 (1,2)-cyclopropanacyclodecaphane-5^6-yl)piperidine-4-carbonyl)piperidin-4-yl)oxy)phenyl)piperidine-2,6-dione]
5 | 9.57 | 57.5 | 21 | 89.3 | Cc1cc2cc(n1)-c1cnn(C)c1OCC[C@H]1C[C@@H]1CN1/C(=N/C2=O)Nc2ccc(N3CCN([C@H]4CCN(c5cc(F)c(C6CCC(=O)NC6=O)nc5C)C[C@H]4F)CC3)cc21 (stereo partly drawn) [Example 30, 3-(5-((3R,4S)-4-(4-((7^1S,7^2R,E)-1^1,2^6-dimethyl-3-oxo-5^2,5^3-dihydro-1^1H,5^1H-10-oxa-4-aza-5 (2,1)-benzo[d]imidazola-2 (2,4)-pyridina-1 (4,5)-pyrazola-7 (1,2)-cyclopropanacyclodecaphane-5^6-yl)piperazin-1-yl)-3-fluoropiperidin-1-yl)-3-fluoro-6-methylpyridin-2-yl)piperidine-2,6-dione]
6 | 9.56 | 69.3 | 4.61 | 89.5 | CCc1nc(C2CCC(=O)NC2=O)ccc1N1CC[C@H](N2CCN(c3ccc4c(c3)N3C[C@H]5C[C@@H]5CCOc5c(cnn5C)-c5cc(cc(C)n5)C(=O)/N=C/3N4)CC2)[C@H](F)C1 (stereo partly drawn) [Example 31, 3-(5-((3R,4S)-4-(4-((7^1S,7^2R,E)-1^1,2^6-dimethyl-3-oxo-5^2,5^3-dihydro-1^1H,5^1H-10-oxa-4-aza-5 (2,1)-benzo[d]imidazola-2 (2,4)-pyridina-1 (4,5)-pyrazola-7 (1,2)-cyclopropanacyclodecaphane-5^6-yl)piperazin-1-yl)-3-fluoropiperidin-1-yl)-6-ethylpyridin-2-yl)piperidine-2,6-dione]
7 | 10.5 | 60.9 | 6.44 | 84.5 | CCc1nc(C2CCC(=O)NC2=O)ccc1N1CC[C@@H](N2CCN(c3ccc4c(c3)N3C[C@H]5C[C@@H]5CCOc5c(cnn5C)-c5cc(cc(C)n5)C(=O)/N=C/3N4)CC2)[C@@H](F)C1 (stereo partly drawn) [Example 32, 3-(5-((3S,4R)-4-(4-((7^1S,7^2R,E)-1^1,2^6-dimethyl-3-oxo-5^2,5^3-dihydro-1^1H,5^1H-10-oxa-4-aza-5 (2,1)-benzo[d]imidazola-2 (2,4)-pyridina-1 (4,5)-pyrazola-7 (1,2)-cyclopropanacyclodecaphane-5^6-yl)piperazin-1-yl)-3-fluoropiperidin-1-yl)-6-ethylpyridin-2-yl)piperidine-2,6-dione]
8 | 4.74 | 44.3 | 8.38 | 89.1 | Cc1cc2cc(n1)-c1cnn(C)c1OCC[C@H]1C[C@@H]1CN1/C(=N/C2=O)Nc2ccc(N3CCN([C@@H]4CCN(c5c(C)cc(C6CCC(=O)NC6=O)nc5C)C[C@@H]4F)CC3)cc21 (stereo partly drawn) [Example 33, 3-(5-((3S,4R)-4-(4-((7^1S,7^2R,E)-1^1,2^6-dimethyl-3-oxo-5^2,5^3-dihydro-1^1H,5^1H-10-oxa-4-aza-5 (2,1)-benzo[d]imidazola-2 (2,4)-pyridina-1 (4,5)-pyrazola-7 (1,2)-cyclopropanacyclodecaphane-5^6-yl)piperazin-1-yl)-3-fluoropiperidin-1-yl)-4,6-dimethylpyridin-2-yl)piperidine-2,6-dione]
9 | 11.9 | 57 | 7.47 | 83.8 | Cc1cc2cc(n1)-c1cnn(C)c1OCC[C@H]1C[C@@H]1CN1/C(=N/C2=O)Nc2ccc(N3CCN([C@@H]4CCN(c5cc(F)c(C6CCC(=O)NC6=O)nc5C)C[C@@H]4F)CC3)cc21 (stereo partly drawn) [Example 34, 3-(5-((3S,4R)-4-(4-((7^1S,7^2R,E)-1^1,2^6-dimethyl-3-oxo-5^2,5^3-dihydro-1^1H,5^1H-10-oxa-4-aza-5 (2,1)-benzo[d]imidazola-2 (2,4)-pyridina-1 (4,5)-pyrazola-7 (1,2)-cyclopropanacyclodecaphane-5^6-yl)piperazin-1-yl)-3-fluoropiperidin-1-yl)-3-fluoro-6-methylpyridin-2-yl)piperidine-2,6-dione]
10 | 8.44 | 41.4 | 22 | 59 | Cc1cc2cc(n1)-c1cnn(C)c1OCC[C@H]1C[C@@H]1CN1/C(=N/C2=O)Nc2ccc(N3CCN(CCc4cc(F)c([C@H]5CCC(=O)NC5=O)c(F)c4)C(C4CCOC4)C3)cc21 (stereo partly drawn) [Example 35, (3R)-3-(4-(2-(4-((7^1S,7^2R,E)-1^1,2^6-dimethyl-3-oxo-5^2,5^3-dihydro-1^1H,5^1H-10-oxa-4-aza-5 (2,1)-benzo[d]imidazola-2 (2,4)-pyridina-1 (4,5)-pyrazola-7 (1,2)-cyclopropanacyclodecaphane-5^6-yl)-2-(tetrahydrofuran-3-yl)piperazin-1-yl)ethyl)-2,6-difluorophenyl)piperidine-2,6-dione]
